Among the data in patent US20250228239A1, “MOLECULES HAVING PESTICIDAL UTILITY, AND INTERMEDIATES, COMPOSITIONS, AND PROCESSES, RELATED THERETO” (priority 2024, published 2025) are pest or weed control values, retold here.

In experiment [1] the test system is Beet Armyworm (Spodoptera exigua, LAPHEG). The experiment in a line: Bioassays on Beet Armyworm (BAW), 128-well diet tray assay. Type of experiment: in vivo. Particulars: Spodoptera exigua, Beet Armyworm. A digest of the protocol:
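Mortality of second-instar larvae (1–5/well) on artificial diet treated with 50 μg/cm^2 compound, read after 5–7 days at 25° C.; values are means of eight wells.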

In experiment [2] the test system is Cabbage Looper (Trichoplusia ni, TRIPNI). As to the kind of experiment: Bioassays on Cabbage Looper (CL), 128-well diet tray assay. As to conditions: Trichoplusia ni, Cabbage Looper. Type of experiment: in vivo. A digest of the protocol:
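Test molecule was dissolved in 90:10 acetone-water, applied to artificial diet at 50 μg/cm^2 and allowed to dry. Second-instar larvae were then added, one to five per well, and trays held at 25° C for five to seven days before mortality was scored and averaged.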

Where [3] appears, read: Table ABC / ABC-DP rating, read-out: BAW rating.
Setting [4] is: Table ABC / ABC-DP rating, read-out: CL rating.

Structures are written as SMILES. Read-outs that look alike come from different tables or passages of the source.

For `O=C(Nc1ccc(F)c(NC(=O)[C@@H]2CCCN2)c1F)c1cc(NC(=O)[C@H]2[C@H](c3ccc(Cl)c(Cl)c3)C2(Cl)Cl)ccc1Cl` [F1664, (S)—N-(3-(2-chloro-5-((1R,3R)-2,2-dichloro-3-(3,4-dichlorophenyl)cyclopropane-1-carboxamido)benzamido)-2,6-difluorophenyl)pyrrolidine-2-carboxamide], the pest or weed control at 50 µg/cm2 in experiment [1] (rating class, read-out: BAW) was 50 to 100%; in experiment [2] (rating class, read-out: CL) it was 50 to 100%.

In the case of `CC(=O)Nc1c(F)cc(F)cc1NC(=O)c1cc(NC(=O)[C@H]2[C@H](c3cc(Cl)cc(Cl)c3)C2(Cl)Cl)ccc1Cl` (relative stereo) [F1632, trans-N-(2-Acetamido-3,5-difluorophenyl)-2-chloro-5-(2,2-dichloro-3-(3,5-dichlorophenyl)cyclopropane-1-carboxamido)benzamide], the pest or weed control at 50 µg/cm2 in experiment [1] (rating class, read-out: BAW) was 50 to 100%; in experiment [2] (rating class, read-out: CL), 50 to 100%.

Regarding `CC(=O)Nc1ccc(F)c(NC(=O)c2cc(NC(=O)[C@H]3[C@H](c4cc(Cl)c(Cl)c(Cl)c4)C3(Cl)Cl)ccc2Cl)c1F` [F1515, N-(3-Acetamido-2,6-difluorophenyl)-2-chloro-5-((1R,3R)-2,2-dichloro-3-(3,4,5-trichlorophenyl)cyclopropane-1-carboxamido)benzamide], the pest or weed control at 50 µg/cm2 in experiment [1] (rating class, read-out: BAW) fell in the range of 50 to 100%; in experiment [2] (rating class, read-out: CL), 50 to 100%.

Turning to `CC(=O)Nc1cc(NC(=O)c2cc(NC(=O)[C@H]3[C@H](c4cc(Cl)c(Cl)c(Cl)c4)C3(Cl)Cl)cc(F)c2F)c(F)cc1F` [F1581, N-(5-Acetamido-2,4-difluorophenyl)-5-((1R,3R)-2,2-dichloro-3-(3,4,5-trichlorophenyl)cyclopropane-1-carboxamido)-2,3-difluorobenzamide], the pest or weed control at 50 µg/cm2 is 50 to 100% in experiment [1] (rating class, read-out: BAW) and 50 to 100% in experiment [2] (rating class, read-out: CL).

As to `Nc1cc(NC(=O)c2cc(NC(=O)[C@H]3[C@H](c4ccc(F)c(C(F)(F)F)c4)C3(Cl)Cl)ccc2Cl)c(F)cc1F` [F1566, N-(5-Amino-2,4-difluorophenyl)-2-chloro-5-((1R,3R)-2,2-dichloro-3-(4-fluoro-3-(trifluoromethyl)phenyl)cyclopropane-1-carboxamido)benzamide], the pest or weed control at 50 µg/cm2 in experiment [1] (rating class, read-out: BAW) lay in the range of 50 to 100%; in experiment [2] (rating class, read-out: CL) it was 50 to 100%.

As to `O=C(NCCCCl)c1cc(NC(=O)[C@H]2[C@H](c3ccc(F)c(Cl)c3)C2(Cl)Cl)cc(F)c1F` (relative stereo) [F2052, trans-N-(3-Chloropropyl)-5-(2,2-dichloro-3-(3-chloro-4-fluorophenyl)cyclopropane-1-carboxamido)-2,3-difluorobenzamide], the pest or weed control at 50 µg/cm2 in experiment [1] (setting [3]) and in experiment [2] (setting [4]) was 50 to 100% throughout.

As for `CC(NNC(=O)c1cc(NC(=O)[C@H]2[C@H](c3cc(Cl)cc(Cl)c3)C2(Cl)Cl)ccc1Cl)c1ccccc1` (relative stereo) [F2548, trans-2,2-Dichloro-N-(4-chloro-3-(2-(1-phenylethyl)hydrazine-1-carbonyl)phenyl)-3-(3,5-dichlorophenyl)cyclopropane-1-carboxamide], the pest or weed control at 50 µg/cm2 in experiment [1] (setting [3]) and in experiment [2] (setting [4]) was 50 to 100% in each case.

On to `O=C(Nc1ccc(F)c(NC(=O)C2CCCO2)c1F)c1cc(NC(=O)[C@H]2[C@H](c3ccc(F)c(Br)c3)C2(Cl)Cl)ccc1Cl` (stereo partly drawn) [F1714, N-(3-(5-((1R,3R)-3-(3-Bromo-4-fluorophenyl)-2,2-dichlorocyclopropane-1-carboxamido)-2-chlorobenzamido)-2,6-difluorophenyl)tetrahydrofuran-2-carboxamide], for which the pest or weed control at 50 µg/cm2 in experiment [1] (rating class, read-out: BAW) was in the range of 50 to 100%; in experiment [2] (rating class, read-out: CL), 50 to 100%.

Turning to `Cc1cc(NC(=O)[C@H]2[C@H](c3cc(Cl)c(Cl)c(Cl)c3)C2(Cl)Cl)cc(C(=O)Nc2c(F)ccc(N)c2F)c1Cl` [F1427, N-(3-Amino-2,6-difluorophenyl)-2-chloro-5-((1R,3R)-2,2-dichloro-3-(3,4,5-trichlorophenyl)cyclopropane-1-carboxamido)-3-methylbenzamide], the pest or weed control at 50 µg/cm2 in experiment [1] (rating class, read-out: BAW) is 50 to 100%; in experiment [2] (rating class, read-out: CL), 50 to 100%.
